# Biological target: T1, streptavidin (Streptomyces avidinii, UniProt P22629)
# T1 construct: purchased GE Healthcare (Little Chalfont, UK)
# Experiment: Cy5-streptavidin binding on HotSpot discovery array, 5-mer L-peptide library
# Conditions: 5-mer L-peptide library array, Cy5-streptavidin; from average of three arrays
# Excerpt: To identify hotspot sequences that bind to streptavidin (SA), we bound Cy5-SA to an array library of 2,476,099 5-mer L-peptides synthesized with 19 of 20 natural amino acids (excluding cysteine). The fluorescence signal intensity was aggregated across three independently synthesized arrays; then the 2,047 peptides with a signal-to-background ratio (S/B) >4 were selected. The data was further filtered to select 1,100 peptides for which signal intensities were highly correlated on all 3 arrays (the percentage of mean deviation to mean was <10%, see Supplementary dataset Table 2A). Most selected sequences (1,019 of 1,100) contained HP, PQ, or PM sequences: their presence would be expected in the well-known HPQ and HPM streptavidin binders[13]–[18].
# The comprehensive peptide library included 2,476,099 5-mer peptides synthesized in a single copy with 19 of 20 L- or D-amino acids (excluding cysteine). Libraries were flanked on both N- and C-termini by linkers of 1 or 3 amino acids using a 3:1 glycine-serine mixture.
# Cy5™-streptavidin (Cy5-SA) was purchased from GE Healthcare (Little Chalfont, UK). Freshly deprotected arrays were used in each experiment. Streptavidin binding to all arrays was performed with 0.5 µg/ml Cy5-SA either in binding buffer containing 10 mM Tris-HCl (pH 7.4), 1% alkali-soluble casein (EMD Millipore), 0.05% Tween-20 or in 10 mM Tris-HCl (pH 7.4), 4% BSA (Roche, Basel, Switzerland), 0.05% Tween-20 in a 30 mL PAP Jar container (Evergreen Scientific, Vernon, CA) overnight at 4° C. After incubation, arrays were washed in 20 mM Tris-HCl (pH 7.8), 0.2 M NaCl, 1% SDS or 1X TBS (pH 7.4) for 30 sec followed by a 1 min wash in water, and then dried by spinning in a microcentrifuge equipped with an array holder.
# Cy5 fluorescence intensity of the arrays was measured with an MS200 scanner (Roche NimbleGen, Madison, WI) at resolution 2 µm, wavelength 635 nm, gain 25%, and laser intensity 100%. Cy5 signal intensities were extracted using Image Extraction Software (Roche NimbleGen). Data pre-processing, normalization, and statistical tests were performed using the language R. Data visualization and analysis was performed with the Spotfire 6.5.0 (Tibco, Boston, MA) software platform. Distance analysis and principle component analysis of distance matrices were performed with the R package PEPLIB[19].
# T1 sequence (P22629 25-183): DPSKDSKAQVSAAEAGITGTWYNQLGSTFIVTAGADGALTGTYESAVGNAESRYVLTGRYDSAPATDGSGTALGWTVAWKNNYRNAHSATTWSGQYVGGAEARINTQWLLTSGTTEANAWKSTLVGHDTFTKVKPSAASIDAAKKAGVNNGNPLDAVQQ
row,Substance,S/B (signal to background ratio)
1,VHPQH,31.7
2,NHPQN,138.1
3,NRHPM,48.6
4,IMHPM,35.1
5,IPHPQ,167.5
6,PIHPM,24.8
7,ILHPQ,121.2
8,DEHPQ,26.0
9,GHPQM,40.8
10,ETHPQ,49.0
11,TFHPQ,156.9
12,RMHPQ,119.1
13,NAHPM,36.0
14,ELHPQ,56.4
15,RLHPQ,137.3
16,HDHPM,51.4
17,ENHPM,23.5
18,LHHPQ,188.8
19,EEHPQ,27.3
20,HHHPQ,143.8
21,LPHPQ,180.6
22,RLHPM,33.8
23,NHHPQ,128.2
24,RGHPQ,135.0
25,IAHPQ,136.2

row,Substance,S/B (signal to background ratio)
1,EWHPM,38.1
2,YHPQY,49.3
3,KFHPM,29.8
4,ANHPM,47.0
5,RHPQD,36.1
6,KHPMA,27.5
7,SWHPQ,171.5
8,IHPQQ,32.5
9,VFHPQ,152.8
10,LSHPQ,156.2
11,IVHPM,23.5
12,HPMSG,45.4
13,WHPQN,176.6
14,EHPQS,36.4
15,LAHPQ,168.6
16,AHHPQ,131.6
17,PAHPQ,124.5
18,SHPQR,26.8
19,HMHPQ,133.8
20,PTHPQ,130.7
21,PMHPQ,135.3
22,IRHPQ,165.9
23,HPQNE,48.0
24,YMHPQ,181.7
25,NTHPQ,133.1

row,Substance,S/B (signal to background ratio)
1,RTHPM,49.0
2,FSHPQ,192.9
3,SHPQQ,41.4
4,SDHPM,34.7
5,WAHPQ,207.5
6,TSHPQ,122.6
7,WHPQI,41.5
8,PHPQI,22.5
9,VIHPM,20.7
10,HPMFN,39.1
11,HHPQQ,45.6
12,YHPMM,31.1
13,WHPQF,132.3
14,LGQFH [L-amino acid 5-mer array peptide],21.5
15,RRHPM,31.6
16,VKHPM,19.5
17,LAMYH [L-amino acid 5-mer array peptide],22.8
18,GFHPQ,181.0
19,YTHPQ,174.6
20,QRHPQ,154.5
21,HFHPQ,174.7
22,SHPQM,37.7
23,VWHPQ,171.7
24,WMHPQ,194.6
25,HPMGQ,20.5

row,Substance,S/B (signal to background ratio)
1,THPQG,125.0
2,WRHPM,120.0
3,YHPMN,26.1
4,NWHPQ,184.8
5,DDHPQ,31.9
6,GSHPM,43.0
7,RNHPQ,136.2
8,QMHPQ,124.9
9,RHPQF,125.0
10,ITHPM,41.5
11,HNHPQ,146.9
12,HYHPQ,184.3
13,SHPQY,47.6
14,IGHPQ,174.2
15,HHPMS,40.6
16,YWHPQ,148.0
17,QWHPQ,173.7
18,HTHPQ,139.1
19,HHPMY,20.0
20,SSHPM,50.5
21,WQHPM,142.1
22,FWHPQ,176.5
23,LIHPQ,120.1
24,FTHPQ,177.7

# Same assay, conditions: 5-mer L-peptide library array, Cy5-streptavidin; from the average of three arrays
row,Substance,S/B (signal to background ratio)
1,VHPQV,61.3
2,QHHPM,64.4
3,QWHPM,72.2
4,VWHPM,71.2
5,WFHPM,87.4
6,FEHPQ,96.4
7,WVHPM,78.5
8,VLHPQ,115.6
9,SRHPM,57.8
10,KHHPQ,96.3
11,KHPQG,73.1
12,GHPQV,97.6
13,HYHPM,88.3
14,FHHPM,95.4
15,EHHPQ,87.5
16,YHPQH,62.5
17,HPQVN,63.9
18,HHPQV,71.9
19,FNHPM,96.1

row,Substance,S/B (signal to background ratio)
1,YHPQF,105.0
2,HPQNY,103.6
3,TVHPQ,96.5
4,HRHPM,61.8
5,LTHPM,64.2
6,GIHPQ,100.2
7,RGHPM,58.1
8,MWHPM,86.7
9,NHPMA,59.8
10,MYHPM,89.3
11,YDHPM,61.8
12,HPQGA,92.1
13,QFHPM,77.7
14,PHPQV,97.2
15,HPQFH,64.4
16,SDHPQ,92.6
17,NKHPQ,85.9
18,YHPQM,77.9

# Same assay, conditions: 5-mer L-peptide library, from the average of three arrays
row,Substance,S/B (signal to background ratio)
1,HPMRT,4.3
2,HPMRA,4.8
3,HPMQF,4.9
4,LAFFH [L-amino acid 5-mer array peptide],4.9
5,KHPMM,4.9
6,HPMQS,4.9
7,HPWRT,4.4
8,HPMSR,4.4
9,HPQKF,4.8

# Same assay, conditions: average of three arrays, L-peptide 5-mer library
row,Substance,S/B (signal to background ratio)
1,RHDLY [L-amino acid 5-mer array peptide],6.6
2,LAFFH [L-amino acid 5-mer array peptide],4.9
3,FDAWL [L-amino acid 5-mer array peptide],11.9
4,FDKWL [L-amino acid 5-mer array peptide],15.9
5,LGQFH [L-amino acid 5-mer array peptide],21.5
6,LAMYH [L-amino acid 5-mer array peptide],22.8
7,MVAHF [L-amino acid 5-mer array peptide],6.3

# Same assay, conditions: signal to background ratio; 5-mer L-peptide library array, Cy5-streptavidin
row,Substance,S/B
1,RHPMQ,16.4
2,HPMAM,6.5
3,WHPQP,10.7
4,HPQWA,8.4
5,GHPMY,11.0
6,DHPQT,8.9
7,RHDLY [L-amino acid 5-mer array peptide],6.6
8,HPQHL,9.2
9,EIHPM,9.9
10,HPMVF,5.3
11,WHPMT,16.9
12,FDAWL [L-amino acid 5-mer array peptide],11.9
13,RHPMI,8.0
14,FDKWL [L-amino acid 5-mer array peptide],15.9
15,HPMPD,5.4
16,MVAHF [L-amino acid 5-mer array peptide],6.3
17,HPMYA,11.4
18,THPQT,11.0
19,MHPMR,10.8
20,HPQTQ,5.4
21,QHPMR,9.5
22,HPMVA,12.1
23,KHPQY,18.3
24,HPMYH,13.0
25,HPQYY,9.4
26,HPMNM,9.1
27,RHPMW,5.9
